Results reported in ChEMBL document CHEMBL3856212, “Synthesis, anti-proliferative and genotoxicity studies of 6-chloro-5-(2-substituted-ethyl)-1,3-dihydro-2H-indol-2-ones and 6-chloro-5-(2-chloroethyl)-3-(alkyl/ary-2-ylidene)indolin-2-ones” (Eur J Med Chem, 2016).

What was measured:
[1] = Induction of apoptosis in mouse EAC cells at 500 uM after 24 hrs by acridine orange dye-based fluorescence microscopy (reference value: 0.66 +/- 0.33%); format: cell-based; conditions: ehrlich
[2] = Cytotoxicity against human LOXIMVI cells assessed as assessed as growth inhibition at 10^-5 M after 48 hrs by SRB assay relative to control; format: functional; conditions: LOX IMVI, read-out: GI
[3] = Cytotoxicity against human SR cells assessed as growth inhibition after 48 hrs by SRB assay; format: functional; conditions: for CC50: read-out: LD50 (the source's name)
[4] = Cytotoxicity against human MDA-MB-435 cells assessed as assessed as growth inhibition at 10^-5 M after 48 hrs by SRB assay relative to control; format: functional; conditions: MDA-MB-435, 48 h, read-out: GI
[5] = Induction of apoptosis in mouse EAC cells at 125 uM after 24 hrs by acridine orange dye-based fluorescence microscopy (reference value: 0.66 +/- 0.33%); format: cell-based; conditions: ehrlich
[6] = Cytotoxicity against human SF295 cells assessed as assessed as growth inhibition at 10^-5 M after 48 hrs by SRB assay relative to control; format: functional; conditions: SF-295, 48 h, read-out: GI
[7] = Cytotoxicity against human RXF393 cells assessed as assessed as growth inhibition at 10^-5 M after 48 hrs by SRB assay relative to control; format: functional; conditions: RXF 393, 48 h, read-out: GI
[8] = Cytotoxicity against human A498 cells assessed as assessed as growth inhibition at 10^-5 M after 48 hrs by SRB assay relative to control; format: functional; conditions: A498, 48 h, read-out: GI
[9] = Cytotoxicity against human NCI-H522 cells assessed as growth inhibition after 48 hrs by SRB assay; format: functional; conditions: NCI-H522, 48 h; for CC50: read-out: LD50 (the source's name)
[10] = Cytotoxicity against human OVCAR3 cells assessed as growth inhibition after 48 hrs by SRB assay; format: functional; conditions: OVCAR-3, 48 h; for CC50: read-out: LD50 (the source's name)
[11] = Cytotoxicity against human SK-MEL-5 cells assessed as growth inhibition after 48 hrs by SRB assay; format: functional; conditions: SK-MEL-5, 48 h; for CC50: read-out: LD50 (the source's name)
[12] = Cytotoxicity against human CCRF-CEM cells assessed as growth inhibition after 48 hrs by SRB assay; format: functional; conditions: for CC50: read-out: LD50 (the source's name)
[13] = Cytotoxicity against human Caki1 cells assessed as growth inhibition after 48 hrs by SRB assay; format: functional; conditions: CAKI-1, 48 h; for CC50: read-out: LD50 (the source's name)
[14] = Cytotoxicity against human 786-0 cells assessed as assessed as growth inhibition at 10^-5 M after 48 hrs by SRB assay relative to control; format: functional; conditions: 786-0, 48 h, read-out: GI
[15] = Cytotoxicity against human HT-29 cells assessed as growth inhibition after 48 hrs by SRB assay; format: functional; conditions: HT-29, 48 h; for CC50: read-out: LD50 (the source's name)
[16] = Cytotoxicity against human SF295 cells assessed as growth inhibition after 48 hrs by SRB assay; format: functional; conditions: SF-295, 48 h; for CC50: read-out: LD50 (the source's name)
[17] = Cytotoxicity against human KM12 cells assessed as growth inhibition after 48 hrs by SRB assay; format: functional; conditions: KM12, 48 h; for CC50: read-out: LD50 (the source's name)
[18] = Cytotoxicity against human SK-MEL-2 cells assessed as growth inhibition after 48 hrs by SRB assay; format: functional; conditions: SK-MEL-2, 48 h; for CC50: read-out: LD50 (the source's name)
[19] = Cytotoxicity against human HCT15 cells assessed as assessed as growth inhibition at 10^-5 M after 48 hrs by SRB assay relative to control; format: functional; conditions: HCT-15, 48 h, read-out: GI
[20] = Cytotoxicity against human SN12C cells assessed as assessed as growth inhibition at 10^-5 M after 48 hrs by SRB assay relative to control; format: functional; conditions: read-out: GI
[21] = Cytotoxicity against human OVCAR8 cells assessed as growth inhibition after 48 hrs by SRB assay; format: functional; conditions: OVCAR-8, 48 h; for CC50: read-out: LD50 (the source's name)
[22] = species on record: Mus musculus; assay: Genotoxicity in mouse EAC cells at 125 uM after 24 hrs by micronucleus assay (reference value: 3.5 +/- 0.30%); format: toxicity, cell-based; conditions: ehrlich
[23] = Cytotoxicity against human NCI-H522 cells assessed as assessed as growth inhibition at 10^-5 M after 48 hrs by SRB assay relative to control; format: functional; conditions: NCI-H522, 48 h, read-out: GI
[24] = Cytotoxicity against human RPMI8226 cells assessed as growth inhibition after 48 hrs by SRB assay; format: functional; conditions: RPMI-8226, 48 h; for CC50: read-out: LD50 (the source's name)
[25] = Cytotoxicity against human DU145 cells assessed as growth inhibition after 48 hrs by SRB assay; format: functional; conditions: DU-145, 48 h; for CC50: read-out: LD50 (the source's name)
[26] = Induction of apoptosis in mouse EAC cells at 250 uM after 24 hrs by acridine orange dye-based fluorescence microscopy (reference value: 0.66 +/- 0.33%); format: cell-based; conditions: ehrlich
[27] = Cytotoxicity against human M14 cells assessed as assessed as growth inhibition at 10^-5 M after 48 hrs by SRB assay relative to control; format: functional; conditions: M14, 48 h, read-out: GI
[28] = Cytotoxicity against human EKVX cells assessed as growth inhibition after 48 hrs by SRB assay; format: functional; conditions: for CC50: read-out: LD50 (the source's name)
[29] = Cytotoxicity against human SK-MEL-28 cells assessed as growth inhibition after 48 hrs by SRB assay; format: functional; conditions: SK-MEL-28, 48 h; for CC50: read-out: LD50 (the source's name)
[30] = Cytotoxicity against human SF539 cells assessed as growth inhibition after 48 hrs by SRB assay; format: functional; conditions: SF-539, 48 h; for CC50: read-out: LD50 (the source's name)
[31] = Cytotoxicity against human COLO205 cells assessed as growth inhibition after 48 hrs by SRB assay; format: functional; conditions: COLO 205, 48 h; for CC50: read-out: LD50 (the source's name)
[32] = Cytotoxicity against human BT549 cells assessed as assessed as growth inhibition at 10^-5 M after 48 hrs by SRB assay relative to control; format: functional; conditions: BT-549, 48 h, read-out: GI
[33] = Cytotoxicity against human NCI-H226 cells assessed as growth inhibition after 48 hrs by SRB assay; format: functional; conditions: NCI-H226, 48 h; for CC50: read-out: LD50 (the source's name)
[34] = Cytotoxicity against human A549 cells assessed as assessed as growth inhibition at 10^-5 M after 48 hrs by SRB assay relative to control; format: functional; conditions: A549, 48 h, read-out: GI

SMILES: O=C1Cc2cc(CCn3ccnc3)c(Cl)cc2N1
- Activity [1]: 0.53%
- inhibition of growth at 10 µM [2]: 26.4%
- GI50 [3]: 9240 nM
- TGI [3]: > 1000 nM
- CC50 [3]: > 1000 nM
- inhibition of growth at 10 µM [4]: 72%
- Activity [5]: 0.33%
- inhibition of growth at 10 µM [6]: 36.6%
- inhibition of growth at 10 µM [7]: 42%
- inhibition of growth at 10 µM [8]: 32.2%
- GI50 [9]: 4740 nM
- TGI [9]: 4790 nM
- CC50 [9]: > 1000 nM
- GI50 [10]: 9310 nM
- TGI [10]: 7810 nM
- CC50 [10]: > 1000 nM
- GI50 [11]: 8120 nM
- TGI [11]: > 1000 nM
- CC50 [11]: > 1000 nM
- GI50 [12]: 3370 nM
- TGI [12]: > 1000 nM
- CC50 [12]: > 1000 nM
- GI50 [13]: 6320 nM
- TGI [13]: > 1000 nM
- CC50 [13]: > 1000 nM
- inhibition of growth at 10 µM [14]: 10.6%
- GI50 [15]: 1000 nM
- TGI [15]: > 1000 nM
- CC50 [15]: > 1000 nM
- GI50 [16]: 7870 nM
- TGI [16]: > 1000 nM
- CC50 [16]: > 1000 nM
- GI50 [17]: 3580 nM
- TGI [17]: 9840 nM
- CC50 [17]: > 1000 nM
- GI50 [18]: 5780 nM
- TGI [18]: 7360 nM
- CC50 [18]: > 1000 nM
- inhibition of growth at 10 µM [19]: 32.8%
- inhibition of growth at 10 µM [20]: 48.8%
- GI50 [21]: 2410 nM
- TGI [21]: > 1000 nM
- CC50 [21]: > 1000 nM
- Activity [22]: 2.76%
- inhibition of growth at 10 µM [23]: 55.2%
- GI50 [24]: 4610 nM
- TGI [24]: > 1000 nM
- CC50 [24]: > 1000 nM
- GI50 [25]: 8020 nM
- TGI [25]: > 1000 nM
- CC50 [25]: > 1000 nM
- Activity [26]: 0.5%
- inhibition of growth at 10 µM [27]: 76.3%
- GI50 [28]: 6130 nM
- TGI [28]: > 1000 nM
- CC50 [28]: > 1000 nM
- GI50 [29]: 2970 nM
- TGI [29]: > 1000 nM
- CC50 [29]: > 1000 nM
- GI50 [30]: 6000 nM
- TGI [30]: > 1000 nM
- CC50 [30]: > 1000 nM
- GI50 [31]: 1510 nM
- TGI [31]: > 1000 nM
- CC50 [31]: > 1000 nM
- inhibition of growth at 10 µM [32]: 30.3%
- GI50 [33]: 1000 nM
- TGI [33]: > 1000 nM
- CC50 [33]: > 1000 nM
- inhibition of growth at 10 µM [34]: 33.3%

SMILES: O=C1Cc2cc(CCN3CCNCC3)c(Cl)cc2N1
- Activity [1]: 0.86%
- inhibition of growth at 10 µM [2]: 21.4%
- GI50 [3]: 6200 nM
- TGI [3]: > 1000 nM
- CC50 [3]: > 1000 nM
- inhibition of growth at 10 µM [4]: 82%
- Activity [5]: 1%
- inhibition of growth at 10 µM [6]: 46.4%
- inhibition of growth at 10 µM [7]: 60.1%
- inhibition of growth at 10 µM [8]: 33.9%
- GI50 [9]: 4880 nM
- TGI [9]: > 1000 nM
- CC50 [9]: > 1000 nM
- GI50 [10]: 1410 nM
- TGI [10]: > 1000 nM
- CC50 [10]: > 1000 nM
- GI50 [11]: 5330 nM
- TGI [11]: > 1000 nM
- CC50 [11]: > 1000 nM
- GI50 [12]: 2980 nM
- TGI [12]: > 1000 nM
- CC50 [12]: > 1000 nM
- GI50 [13]: 6110 nM
- TGI [13]: > 1000 nM
- CC50 [13]: > 1000 nM
- inhibition of growth at 10 µM [14]: 15.3%
- GI50 [15]: 1000 nM
- TGI [15]: > 1000 nM
- CC50 [15]: > 1000 nM
- GI50 [16]: 4200 nM
- TGI [16]: > 1000 nM
- CC50 [16]: > 1000 nM
- GI50 [17]: 3960 nM
- TGI [17]: > 1000 nM
- CC50 [17]: > 1000 nM
- GI50 [18]: 1520 nM
- TGI [18]: > 1000 nM
- CC50 [18]: > 1000 nM
- inhibition of growth at 10 µM [19]: 51.2%
- inhibition of growth at 10 µM [20]: 52.8%
- GI50 [21]: 3680 nM
- TGI [21]: > 1000 nM
- CC50 [21]: > 1000 nM
- Activity [22]: 3.36%
- inhibition of growth at 10 µM [23]: 73.6%
- GI50 [24]: 6030 nM
- TGI [24]: > 1000 nM
- CC50 [24]: > 1000 nM
- GI50 [25]: 1990 nM
- TGI [25]: > 1000 nM
- CC50 [25]: > 1000 nM
- Activity [26]: 1.06%
- inhibition of growth at 10 µM [27]: 75.5%
- GI50 [28]: 3580 nM
- TGI [28]: > 1000 nM
- CC50 [28]: > 1000 nM
- GI50 [29]: 3700 nM
- TGI [29]: > 1000 nM
- CC50 [29]: > 1000 nM
- GI50 [30]: 1000 nM
- TGI [30]: > 1000 nM
- CC50 [30]: > 1000 nM
- GI50 [31]: 1970 nM
- TGI [31]: > 1000 nM
- CC50 [31]: > 1000 nM
- inhibition of growth at 10 µM [32]: 40.9%
- GI50 [33]: 1000 nM
- TGI [33]: > 1000 nM
- CC50 [33]: > 1000 nM
- inhibition of growth at 10 µM [34]: 51.1%
